Source: ChEMBL document CHEMBL1134257, “Probing the transducin nucleotide binding site with GDP analogues” (Bioorg Med Chem Lett, 2001)

Assay: Inhibitory concentration for heterotrimeric G protein, transducer

| SMILES | IC50 |
| --- | --- |
| Nc1nc2c(ncn2[C@@H]2O[C@H](COP(=O)(O)CP(=O)(O)O)C(O)C2O)c(=O)[nH]1 (single isomer, unassigned) [PHOSPHOMETHYLPHOSPHONIC ACID GUANOSYL ESTER] | > 1000 µM |
| Nc1nc(O)c2ncn(C3O[C@H](COC(=O)CC(=O)O)C(O)C3O)c2n1 (single isomer, unassigned) | > 1000 µM |
| NCCOCCOc1nc(N)nc2c1ncn2C1O[C@H](COP(=O)(O)NP(=O)(O)O)[C@@H](O)[C@H]1O (stereo partly drawn) | > 1000 µM |
| CCC(=O)O[C@H]1[C@@H](O)[C@H](n2cnc3c(O)nc(N)nc32)O[C@@H]1COP(=O)(O)NP(=O)(O)O | 500 µM |
| Nc1nc2c(ncn2[C@@H]2O[C@H](COC(=O)CP(=O)(O)O)C(O)C2O)c(=O)[nH]1 (single isomer, unassigned) | > 1000 µM |
| NCCOCCOCCn1c(N)nc2c(ncn2C2O[C@H](COP(=O)(O)NP(=O)(O)O)[C@@H](O)[C@H]2O)c1=O (stereo partly drawn) | > 1000 µM |
| Nc1nc(O)c2ncn(C3O[C@H](COP(=O)(O)NP(=O)(O)O)[C@@H](O)[C@H]3O)c2n1 (stereo partly drawn) | 12 µM |
| Nc1nc(O)c2ncn(C3O[C@H](COP(=O)(O)CC(=O)O)C(O)C3O)c2n1 (single isomer, unassigned) | > 1000 µM |
